Reference: the NIST ThermoML archive (doi:10.1021/je5009125)

Test: xn = mol fraction of the nth substance listed
Settings: Liquid; for mass density: Vibrating tube method; for viscosity: Vibrating wire viscometry

O=C=O [carbon dioxide] + O
Settings	mass density [kg/m3]	viscosity [mPa·s]
274.72 K, 30290 kPa, x1 = 0.0271	1030.1	–
274.72 K, 50410 kPa, x1 = 0.0271	1038.8	–
274.72 K, 70530 kPa, x1 = 0.0271	1047.2	–
274.72 K, 100770 kPa, x1 = 0.0271	1059.2	–
274.73 K, 15010 kPa, x1 = 0.0086	1012	–
274.73 K, 30110 kPa, x1 = 0.0086	1019	–
274.73 K, 50240 kPa, x1 = 0.0086	1028.1	–
274.73 K, 70360 kPa, x1 = 0.0086	1036.8	–
274.73 K, 100670 kPa, x1 = 0.0086	1049.3	–
274.77 K, 15080 kPa, x1 = 0.0168	1017.3	–
274.77 K, 30190 kPa, x1 = 0.0168	1024.1	–
274.77 K, 50310 kPa, x1 = 0.0168	1033	–
274.77 K, 70430 kPa, x1 = 0.0168	1041.6	–
274.77 K, 100710 kPa, x1 = 0.0168	1053.9	–
294.27 K, 15100 kPa, x1 = 0.0168	–	1.049
294.27 K, 30200 kPa, x1 = 0.0168	–	1.044
294.27 K, 50200 kPa, x1 = 0.0168	–	1.044
294.27 K, 70200 kPa, x1 = 0.0168	–	1.041
294.27 K, 96300 kPa, x1 = 0.0168	–	1.046
294.3 K, 15100 kPa, x1 = 0.0086	–	1.013
294.3 K, 30200 kPa, x1 = 0.0086	–	1.014
294.3 K, 50300 kPa, x1 = 0.0086	–	1.012
294.3 K, 70300 kPa, x1 = 0.0086	–	1.008
294.3 K, 96400 kPa, x1 = 0.0086	–	1.008
294.31 K, 30300 kPa, x1 = 0.0271	–	1.096
294.31 K, 50300 kPa, x1 = 0.0271	–	1.095
294.31 K, 70400 kPa, x1 = 0.0271	–	1.097
294.31 K, 96500 kPa, x1 = 0.0271	–	1.1
296.17 K, 15100 kPa, x1 = 0.0086	1008.6	–
296.17 K, 30200 kPa, x1 = 0.0086	1015	–
296.17 K, 50260 kPa, x1 = 0.0086	1023.4	–
296.17 K, 70330 kPa, x1 = 0.0086	1031.4	–
296.17 K, 100650 kPa, x1 = 0.0086	1042.9	–
296.18 K, 30250 kPa, x1 = 0.0271	1025.3	–
296.18 K, 50360 kPa, x1 = 0.0271	1033.4	–
296.18 K, 70440 kPa, x1 = 0.0271	1041.2	–
296.18 K, 100760 kPa, x1 = 0.0271	1052.6	–
296.19 K, 15070 kPa, x1 = 0.0168	1013.3	–
296.19 K, 30170 kPa, x1 = 0.0168	1019.7	–
296.19 K, 50300 kPa, x1 = 0.0168	1027.9	–
296.19 K, 70410 kPa, x1 = 0.0168	1035.9	–
296.19 K, 100730 kPa, x1 = 0.0168	1047.3	–
322.91 K, 15000 kPa, x1 = 0.0168	–	0.568
322.91 K, 30100 kPa, x1 = 0.0168	–	0.573
322.91 K, 50200 kPa, x1 = 0.0168	–	0.578
322.91 K, 70200 kPa, x1 = 0.0168	–	0.584
322.91 K, 96200 kPa, x1 = 0.0168	–	0.592
322.93 K, 15000 kPa, x1 = 0.0086	–	0.56
322.93 K, 30100 kPa, x1 = 0.0086	–	0.564
322.93 K, 50200 kPa, x1 = 0.0086	–	0.568
322.93 K, 70200 kPa, x1 = 0.0086	–	0.573
322.93 K, 96300 kPa, x1 = 0.0086	–	0.582
323.12 K, 70400 kPa, x1 = 0.0271	–	0.606
323.12 K, 96500 kPa, x1 = 0.0271	–	0.615
323.43 K, 15060 kPa, x1 = 0.0168	1002.5	–
323.43 K, 30180 kPa, x1 = 0.0168	1008.8	–
323.43 K, 50300 kPa, x1 = 0.0168	1016.9	–
323.43 K, 70420 kPa, x1 = 0.0168	1024.6	–
323.43 K, 70460 kPa, x1 = 0.0271	1029.6	–
323.43 K, 100720 kPa, x1 = 0.0168	1035.7	–
323.43 K, 100780 kPa, x1 = 0.0271	1040.7	–
323.45 K, 15020 kPa, x1 = 0.0086	998.4	–
323.45 K, 30130 kPa, x1 = 0.0086	1004.7	–
323.45 K, 50250 kPa, x1 = 0.0086	1012.8	–
323.45 K, 70360 kPa, x1 = 0.0086	1020.6	–
323.45 K, 100720 kPa, x1 = 0.0086	1031.6	–
348.32 K, 15050 kPa, x1 = 0.0086	984.8	–
348.32 K, 30150 kPa, x1 = 0.0086	991.3	–
348.32 K, 50270 kPa, x1 = 0.0086	999.5	–
348.32 K, 70370 kPa, x1 = 0.0086	1007.3	–
348.32 K, 100710 kPa, x1 = 0.0086	1018.6	–
348.33 K, 70580 kPa, x1 = 0.0271	1015.3	–
348.33 K, 100780 kPa, x1 = 0.0271	1026.8	–
348.38 K, 30200 kPa, x1 = 0.0168	994.9	–
348.38 K, 50320 kPa, x1 = 0.0168	1003.2	–
348.38 K, 70450 kPa, x1 = 0.0168	1011.1	–
348.38 K, 100740 kPa, x1 = 0.0168	1022.4	–
373.03 K, 30100 kPa, x1 = 0.0168	–	0.2932
373.03 K, 50200 kPa, x1 = 0.0168	–	0.2989
373.03 K, 70200 kPa, x1 = 0.0168	–	0.304
373.03 K, 96200 kPa, x1 = 0.0168	–	0.3111
373.13 K, 15000 kPa, x1 = 0.0086	–	0.286
373.13 K, 30100 kPa, x1 = 0.0086	–	0.291
373.13 K, 50200 kPa, x1 = 0.0086	–	0.297
